The source of these data is US5962502A, “Polyamidic acid derivatives with antigastrin activity, a method for their preparation, and their pharmaceutical use” (priority 1993, dated 1999).

For one test, the target named is T1, central CCK-B receptor (Cavia porcellus, UniProt H0VZC5).
T1 construct: Cerebral cortices of male white guinea-pigs were thus used; from tissue; host or cells: cerebral cortex membranes of male white guinea-pigs
T1 sequence (H0VZC5 1-426): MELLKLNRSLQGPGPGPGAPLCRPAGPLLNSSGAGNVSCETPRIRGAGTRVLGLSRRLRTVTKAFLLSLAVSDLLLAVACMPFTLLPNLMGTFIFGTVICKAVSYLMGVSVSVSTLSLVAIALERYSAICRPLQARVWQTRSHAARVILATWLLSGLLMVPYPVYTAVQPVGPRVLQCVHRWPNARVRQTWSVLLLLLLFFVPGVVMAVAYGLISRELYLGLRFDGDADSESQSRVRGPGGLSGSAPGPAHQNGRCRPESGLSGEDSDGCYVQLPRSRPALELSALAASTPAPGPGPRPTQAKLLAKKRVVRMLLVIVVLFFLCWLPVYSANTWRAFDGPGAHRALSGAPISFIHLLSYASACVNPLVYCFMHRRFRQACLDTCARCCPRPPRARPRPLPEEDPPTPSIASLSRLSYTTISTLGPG
Nature of the test: Inhibition of the binding of [3-H][N-methyl-N-leucine]CCK-8 to guinea-pig cortical membranes. Particulars: guinea-pig cortical membranes, 150 minutes at 25° C. The procedure: The ability of the compounds of the invention to interact with the central CCK-B receptor was evaluated with the use of non-sulphated [3-H] […] 225 (3) (1990), 1278-1286].
Cerebral cortices of male white guinea-pigs were thus used, according to the method mentioned above, so as to obtain a membrane content corresponding to about 300 mcg of proteins/ml. The membranes were incubated together with the radioactive tracer and the compounds under test for 150 minutes at 25° C. After the supernatant had been discarded, the radioactivity associated with the pellet was determined with a liquid scintillator. The specific binding was determined as the difference between the binding in the absence and in the presence of 5.10^-6 M CCK-8.

In a further test the test system is mouse. Put plainly: Black and White Box test in the mouse (anxiolytic activity). The test is classed as in vivo. The following applies: for LIGHT TIME TOTAL TIME / LIGHT-DARK MOVEMENTS / MOV. DARK % TOTAL MOV. / TOTAL MOVEMENTS: 5 minutes. Here is the method: It has recently been postulated that the central CCK-B receptor has an important role in anxiety. This is in accordance with studies also carried out in man, which have shown that the central CCK-B mechanisms have an important function in the mediation of panic attacks [Bradwejn, H. et al; J. Psychopharmacology 6 (1992), 345]. […] This experimental model, which was carried out according to Costall et al [Pharm. Biochem. Behav. 32 (1989), 777-785], used a box with dimensions of 45×21×21(h) cm divided into 2 compartments which communicated with one another through a 13×5 cm hole. The smaller compartment (1/3 of the total area) had black walls, whereas the larger had transparent walls and was illuminated by a lamp which was placed 20 cm above the box and supplied light at 20W. Under the floor there was an activity meter which recorded the movements performed by the animal in the individual compartments. The experiment was started by placing the animal in the centre of the illuminated box; as well as movements, the time which the animal spent in the dark and in the light areas and the number of movements between the 2 compartments were then recorded for 5 minutes. A control animal generally preferred to stay in the dark compartment where it felt better protected from an unusual environmental situation which put it in a state of anxiety. In this experimental model, a compound having anxiolytic activity decreased the % of movements into the dark in comparison with the total movements, increased the movements between the two light-dark compartments, and increased the % of time spent in the light in comparison with the total time.
The results obtained are shown in Table 7, where the activities obtained with compounds 9, 21 and 51 are given, tested in comparison with diazepam.

With `O=C(O)CNC(=O)CC[C@@H](NC(=O)c1cc(Cl)cc(Cl)c1)C(=O)N1CCC2(CCCC2)CC1` [Compound 1], the IC50 at central CCK-B receptor was 1060 nM.
`O=C(O)CCNC(=O)CC[C@@H](NC(=O)c1cc(Cl)cc(Cl)c1)C(=O)N1CCC2(CCCC2)CC1` [Compound 3]: the IC50 on central CCK-B receptor came out at 730 nM.
Same read-out and setting: for `O=C(O)CCCNC(=O)CC[C@@H](NC(=O)c1cc(Cl)cc(Cl)c1)C(=O)N1CCC2(CCCC2)CC1` [Compound 4] the value was 1250 nM; for `CC(NC(=O)CC[C@@H](NC(=O)c1cc(Cl)cc(Cl)c1)C(=O)N1CCC2(CCCC2)CC1)C(=O)O` (stereo partly drawn) [Compound 5], 1320 nM; for `CSCCC(NC(=O)CC[C@@H](NC(=O)c1cc(Cl)cc(Cl)c1)C(=O)N1CCC2(CCCC2)CC1)C(=O)O` (stereo partly drawn) [Compound 7], 510 nM.
Consider `O=C(CC[C@@H](NC(=O)c1cc(Cl)cc(Cl)c1)C(=O)N1CCC2(CCCC2)CC1)N[C@@H](C(=O)O)c1ccccc1` [Compound 13], for which the 50% inhibitory concentration (IC50) on central CCK-B receptor stood at 420 nM.
On the same count and under the same terms, the value for `O=C(CC[C@@H](NC(=O)c1cc(Cl)cc(Cl)c1)C(=O)N1CCC2(CCCC2)CC1)NC(Cc1ccc(Cl)cc1)C(=O)O` (stereo partly drawn) [Compound 17] was 680 nM; that for `O=C(CC[C@@H](NC(=O)c1cc(Cl)cc(Cl)c1)C(=O)N1CCC2(CCCC2)CC1)N[C@H](Cc1cccnc1)C(=O)O` [Compound 26] was 250 nM; that for `O=C(CC[C@@H](NC(=O)c1cccc(Cl)c1)C(=O)NCCC12CC3CC(CC(C3)C1)C2)N[C@H](Cc1c[nH]c2ccccc12)C(=O)O` [Compound 31] was 13900 nM.
In turn, `Cc1cccc(C(=O)N[C@H](CCC(=O)N[C@H](Cc2c[nH]c3ccccc23)C(=O)O)C(=O)N2CCC3(CCCC3)CC2)c1` [Compound 32] showed a half-inhibitory concentration (IC50) on central CCK-B receptor of 3560 nM. Compared with the last compound, the IC50 is about 3.9-fold lower.
On the same count and under the same terms, for `CC(C)(C)CCNC(=O)[C@@H](CCC(=O)NC(Cc1ccccc1)C(=O)O)NC(=O)c1cccc(Cl)c1` (stereo partly drawn) [Compound 33] the value was greater than 30000 nM; for `O=C(O)CC[C@@H](NC(=O)CC[C@@H](NC(=O)c1cc(Cl)cc(Cl)c1)C(=O)N1CCC2(CCCC2)CC1)C(=O)N1CCC2(CCCC2)CC1` [Compound 36], 1700 nM.
`CN(C(=O)[C@@H](CCC(=O)O)NC(=O)CC[C@@H](NC(=O)c1cc(Cl)cc(Cl)c1)C(=O)N1CCC2(CCCC2)CC1)c1ccccc1` [Compound 37]: the half-maximal inhibitory concentration (IC50) at central CCK-B receptor was determined as 700 nM.
On central CCK-B receptor, `O=C(O)CC[C@@H](NC(=O)CC[C@@H](NC(=O)c1cc(Cl)cc(Cl)c1)C(=O)N1CCC2(CCCC2)CC1)C(=O)Nc1ccc2ccccc2c1` [Compound 39] returned an IC50 of 700 nM.
On the same count and under the same terms, for `O=C(O)CC[C@@H](NC(=O)CC[C@@H](NC(=O)c1cc(Cl)cc(Cl)c1)C(=O)N1CCC2(CCCC2)CC1)C(=O)NCCC12CC3CC(CC(C3)C1)C2` [Compound 40] the value was greater than 30000 nM; for `O=C(O)CC[C@@H](NC(=O)CC[C@@H](NC(=O)c1cc(Cl)cc(Cl)c1)C(=O)N1CCC2(CCCC2)CC1)C(=O)NCCc1ccccc1` [Compound 41], 790 nM; for `CCCCCN(CCCCC)C(=O)[C@@H](CCC(=O)N[C@H](Cc1c[nH]c2ccccc12)C(=O)O)NC(=O)c1ccc2ccccc2c1` [Compound 42], 1880 nM.
As to `CN1C(=O)CN=C(c2ccccc2)c2cc(Cl)ccc21` [DIAZEPAM, diazepam, reference compound], in the test on mouse (1.0 mg/kg IP), the “EFF. % VS CONTROL (LIGHT TIME TOTAL TIME)” value came to 19%, the “EFF. % VS CONTROL (LIGHT-DARK MOVEMENTS)” value stood at 37%, the “EFF. % VS CONTROL (MOV. DARK % TOTAL MOV.)” value is listed as -5% and the “LIGHT TIME TOTAL TIME” value is given as 29.3%. In addition, in the test on mouse (1.0 mg/kg IP), the “LIGHT-DARK MOVEMENTS” value is 19.9, the “MOV. DARK % TOTAL MOV.” value was determined as 53% and the “TOTAL MOVEMENTS” value amounted to 508. Moreover, in the test on mouse (3.0 mg/kg IP), the “EFF. % VS CONTROL (LIGHT TIME TOTAL TIME)” value was found to be 37%, the “EFF. % VS CONTROL (LIGHT-DARK MOVEMENTS)” value is given as 54%, the “EFF. % VS CONTROL (MOV. DARK % TOTAL MOV.)” value was -7% and the “LIGHT TIME TOTAL TIME” value came to 33.6%. In addition, in the test with mouse (3.0 mg/kg IP), the “LIGHT-DARK MOVEMENTS” value turned out to be 22.3, the “MOV. DARK % TOTAL MOV.” value is 52% and the “TOTAL MOVEMENTS” value is recorded as 539. Besides, in the test with mouse (1 and 3 mg/kg), the “effect on the total movements parameter, result in words” value is “significantly increased”. In addition, in the test with mouse (Black and White Box test, IP), the “anxiolytic activity, result in words” value is reported as “active for all the parameters tested”.
